Results published in patent US4206217A, “3-[4-(1,3-Diazacycloalken-2-yl)-phenyl]-1,2-benzisothiazoles, their manufacture, and drugs containing these compounds” (BASF Aktiengesellschaft, priority 1977, dated 1980).
Counter-ions that a name gives are not always drawn.

Columns and labels:
isolated auricle = experiment: Stimulation time/tension relationship (isolated auricle)
From the text: In test models used in respect of the antiarrhythmic effect, the following findings were obtained: Stimulation time/tension relationship (isolated auricle): […]

[1] = test system: aconitine-induced arrhythmia; experiment: animal or person; type: in vivo, rat (Sprague Dawley); conditions: for ED50: Rattus norvegicus, po, read-out: Antiarrhythmic effect: effective dose ED 50%; for Maximum effect: Δ% (increase in duration of aconitine infusion): effect of the maximum nontoxic dose (215 for Examples 2 and 3; 681 for procainamide); for Maximum effect: Δ% (increase in duration of aconitine infusion) / Antiarrhythmic effect: R.E. (relative effect) / Maximum effect: R.M.E. (relative maximum effectiveness) / Effect at the maximum dose, higher than that of procainamide / Antiarrhythmic activity greater than that of procainamide: rat, oral; for Antiarrhythmic effect: R.E. (relative effect) / Maximum effect: R.M.E. (relative maximum effectiveness): procainamide = 1.00; for Antiarrhythmic effect: R.E. (relative effect): effective dose; for Effect at the maximum dose, higher than that of procainamide / Antiarrhythmic activity greater than that of procainamide: versus procainamide
Method: The antiarrhythmic activity of the compounds was determined by orally administering these to rats (Sprague Dawley, weight: 180-240 g) 45 minutes before the start of narcosis (100 mg/kg of thiobutabarbital, administered intraperitoneally).
The arrhythmogenous substance used was aconitine, administered by intravenous infusion (at the rate of 0.005 mg/kg.minute) 60 minutes after administration of the compound of the invention.
For a quantitative evaluation of the linear relation between the logarithm of the dose (mg/kg) of the test substances and the relative increase in the duration of infusion of aconitine (Δ%), the dose which increases the duration of infusion by 50% (ED 50%) was determined.

[2] = test system: ventricular fibrillation threshold; experiment: Ventricular fibrillation threshold in guinea pigs; type: in vivo, guinea pig; conditions: intravenous administration
From the text: Ventricular fibrillation threshold in guinea pigs:

female Swiss mice = experiment: in vivo; conditions: versus procainamide
Method: (§1) The acute toxicity was determined on groups of 10 or 20 female Swiss mice weighing 20-26 g, using intraperitoneal administration. The LD 50 was calculated (Probit analysis) as the dose following which 50% of the animals died within 7 days.

in vivo = conditions: mouse, in vivo; for LD50 at 168 h: ip
Method: as §1

Compound | Stimulation time/tension relationship, effect relative to quinidine (isolated auricle) | ED50 [1] | Maximum effect: Δ% (increase in duration of aconitine infusion) [1] | Antiarrhythmic effect: R.E. (relative effect) [1] | Maximum effect: R.M.E. (relative maximum effectiveness) [1] | Effect at the maximum dose, higher than that of procainamide [1] | Antiarrhythmic activity greater than that of procainamide [1] | Ventricular fibrillation threshold, effect relative to quinidine [2] | Therapeutic range (LD 50 / ED 50%) greater than for procainamide (female Swiss mice) | selectivity ratio (in vivo) | LD50 at 168 h (in vivo)
c1ccc2c(-c3ccc(C4=NCCCN4)cc3)nsc2c1 [Example 2, 3-[4-(Tetrahydropyrimidin-2-yl)-phenyl]-1,2-benzisothiazole hydrochloride] | 1.24 times the effect of quinidine | 31.2 mg/kg | 289% | 5.03 | 2.14 | 114% | about 5 times | 1.8 times the effect of quinidine | 4 times | 4.03 | 126 mg/kg
CC1CN=C(c2ccc(-c3nsc4ccccc34)cc2)N1 (stereo not drawn) [Example 3, 3-[4-(Methylimidazolin-2-yl)-phenyl]-1,2-benzisothiazole hydrochloride] | 1.5 times the effect of quinidine | 32.7 mg/kg | 233% | 4.80 | 1.73 | 73% | about 5 times |  | 2.8 times | 2.76 | 90.5 mg/kg
CCN(CC)CCNC(=O)c1ccc(N)cc1 [Procainamide, procainamide, reference compound] |  | 157 mg/kg | 135% |  |  |  |  |  |  |  | 227 mg/kg
